From ChEMBL document CHEMBL6078667, “Synthesis, Biological Evaluation, and Mechanistic Insights of Rubrolide Analogues as Antitumor Agents” (J Nat Prod, 2024)
pIC50: −log10 of the molar value. Activity calls are given as the source filed them. No cut-off for these calls is given here.

What was measured:
HeLa [1] = assay: Induction of apoptosis in human HeLa cells assessed as necrotic cells at 0.2 uM incubated for 24 hrs by Annexin V-FITC/PI staining based flow cytometric analysis (reference value: 0.44 %); format: functional
HCT-116 [2] = assay: Induction of ROS production in human HCT-116 cells assessed as fold change at 0.2 to 0.4 uM incubated for 24 hrs by DCFH-DA probe based flow cytometric analysis; format: functional; conditions: dose 0.2-0.4 µM
MGC-803 = assay: Cytotoxicity against human MGC-803 cells assessed as inhibition of cell growth incubated for 72 hrs by MTT assay; format: functional, cell-based; conditions: MGC-803, 72 h
HeLa [3] = assay: Antitumor activity against human HeLa cells xenografted in female BALB/c nude mouse assessed as reduction in tumor cell growth administered intraperitoneally as liposome formulation once daily for 13 days; format: functional; conditions: dose 5-20 mg/kg, route ip, time 13.0 day
HCT-116 [4] = assay: Upregulation of phosphorylated eIF2alpha expression in human HCT-116 cells at 0.2 to 0.4 uM measured after 48 hrs by Western blot analysis; format: functional, cell-based; conditions: dose 0.2-0.4 µM
HCT-116 [5] = assay: Induction of apoptosis in human HCT-116 cells assessed as early apoptotic cells at 0.4 uM incubated for 24 hrs by Annexin V-FITC/PI staining based analysis (reference value: 7.40 %); format: functional
[6] = Drug localization in human HeLa cell endoplasmic reticulum incubated for 8 hrs by […] dye based fluorescence microscopic analysis; format: ADME, subcellular
HCT-116 [7] = assay: Induction of ROS production in human HCT-116 cells at 0.2 to 0.4 uM incubated for 24 hrs by DCFH-DA probe based flow cytometric analysis; format: functional, cell-based; conditions: dose 0.2-0.4 µM
HCT-116 [8] = assay: Induction of apoptosis in human HCT-116 cells assessed as necrotic cells at 0.4 uM incubated for 24 hrs by Annexin V-FITC/PI staining based analysis (reference value: 0.083 %); format: functional
HeLa [9] = assay: Upregulation of phosphorylated PERK expression in human HeLa cells at 0.2 to 0.4 uM measured after 48 hrs by Western blot analysis; format: functional, cell-based; conditions: dose 0.2-0.4 µM
HCT-116 [10] = assay: Cell cycle arrest in human HCT-116 cells assessed as accumulation of cells at G0/G1 phase at 0.4 uM measured after 24 hrs by PI staining based flow cytometric analysis (reference value: 51.3 %); format: functional
HCT-116 [11] = assay: Cytotoxicity against human HCT-116 cells assessed as inhibition of cell growth at 10 uM measured after 72 hrs by MTT assay relative to control; format: functional
HCT-116 [12] = assay: Cytotoxicity against human HCT-116 cells assessed as inhibition of cell growth incubated for 72 hrs by MTT assay; format: functional, cell-based; conditions: HCT-116, 72 h
[13] = Selectivity index, ratio of IC50 for HHL-5 cells to IC50 for human HeLa cells; format: toxicity; conditions: HHL-5 cells and HeLa cells, pooled result: one value given for 6 cell lines, strains, targets or settings, read-out: Ratio IC50
HCT-116 [14] = assay: Induction of apoptosis in human HCT-116 cells assessed as necrotic cells at 0.2 uM incubated for 24 hrs by Annexin V-FITC/PI staining based analysis (reference value: 0.083 %); format: functional
U-87 MG [15] = assay: Cytotoxicity against human U-87 MG cells assessed as survival rate at 10 uM measured after 72 hrs by MTT assay relative to control; format: functional, U-87MG ATCC; conditions: read-out: Survival
[16] = Drug localization in human HCT-116 cell endoplasmic reticulum incubated for 8 hrs by […] dye based fluorescence microscopic analysis; format: ADME, subcellular; conditions: hct-116, 8 h
MCF7 = assay: Cytotoxicity against human MCF7 cells assessed as survival rate at 10 uM measured after 72 hrs by MTT assay relative to control; format: functional; conditions: read-out: Survival
HCT-116 [17] = assay: Cell cycle arrest in human HCT-116 cells assessed as accumulation of cells at G2/M phase at 0.2 uM measured after 24 hrs by PI staining based flow cytometric analysis (reference value: 26.4 %); format: functional
HeLa [18] = assay: Induction of apoptosis in human HeLa cells assessed as viable cells at 0.4 uM incubated for 24 hrs by Annexin V-FITC/PI staining based flow cytometric analysis (reference value: 90.6 %); format: functional; conditions: read-out: Activity
HeLa [19] = assay: Cytotoxicity against human HeLa cells assessed as inhibition of cell growth incubated for 72 hrs by MTT assay; format: functional, cell-based
HCT-116 [20] = assay: Cell cycle arrest in human HCT-116 cells assessed as accumulation of cells at G0/G1 phase at 0.2 uM measured after 24 hrs by PI staining based flow cytometric analysis (reference value: 51.3 %); format: functional
[21] = Drug localization in human HeLa cell mitochondria incubated for 8 hrs by Mito-tracker green dye based fluorescence microscopic analysis; format: ADME
HeLa [22] = assay: Cell cycle arrest in human HeLa cells assessed as accumulation of cells at G0/G1 phase at 0.2 uM measured after 24 hrs by PI staining based flow cytometric analysis (reference value: 54.7 %); format: functional
U-87 MG [23] = assay: Cytotoxicity against human U-87 MG cells assessed as inhibition of cell growth at 10 uM measured after 72 hrs by MTT assay relative to control; format: functional, U-87MG ATCC
HeLa [24] = assay: Antitumor activity against human HeLa cells xenografted in female BALB/c nude mouse assessed as reduction in tumor cell weight at 20 mg/kg, ip administered as liposome formulation once daily for 13 days relative to control; format: functional; set-up: scale not given: the % may be the effect or the level left; conditions: time 13 day

COc1ccc(C2=CC(=O)O/C2=C\c2ccc(O)cc2)cc1
Activity (HeLa [1]): 0.44% | fold change (FC) (HCT-116 [2]): >4 | pIC50 (MGC-803): 5.96 | Activity (HeLa [3]): Dose-dependent-effect | Activity (HCT-116 [4]): Active; Compound Impacts Endoplasmic Reticulum Stress Related Perk-Eif2Alpha-Chop Signalling Pathway | Activity (HCT-116 [5]): 8.33% | Drug uptake [6]: Active | Activity (HCT-116 [7]): Active | Activity (HCT-116 [8]): 7.38% | Activity (HeLa [9]): Active; Compound Impacts Endoplasmic Reticulum Stress Related Perk-Eif2Alpha-Chop Signalling Pathway | Activity (HCT-116 [10]): 23.2% | inhibition at 10 µM (HCT-116 [11]): > 50% | pIC50 (HCT-116 [12]): 6.70 | selectivity ratio [13]: 2.6 | Activity (HCT-116 [14]): 5.89% | viability at 10 µM (U-87 MG [15]): 12.4% | Drug uptake [16]: Active | viability at 10 µM (MCF7): 24.8% | Activity (HCT-116 [17]): 22.8% | viability at 0.4 µM (HeLa [18]): 47.9% | pIC50 (HeLa [19]): 6.70 | Activity (HCT-116 [20]): 38.8% | Drug uptake [21]: Not_active | Activity (HeLa [22]): 18.8% | inhibition at 10 µM (U-87 MG [23]): > 50% | Activity (HeLa [24]): 50%
